Results on seven compounds are retold here after patent publication US4283328A, “Preparation of dehydropeptides” (Research Corporation, priority 1979, dated 1981).

Data set [1] deals with α-chymotrypsin. Description: Enzymolysis with chymotrypsin (stability to enzymatic hydrolysis). Format: in vitro ADME. Here is the method: (§1) One purpose in introducing unsaturation into a peptide chain is to increase the binding of the peptides to active sites and protect the peptide from enzymatic cleavage, e.g. hydrolysis, in the bloodstream, thus enhancing activity. One method of measuring the stability of peptides to enzymatic hydrolysis is to treat the peptides with chymotrypsin which is specific for phenyl bonds.
(§2) A solution of 46 mg of N-Carbobenzoxy-L-prolyl-dehydrophenylalanyl-L-phenylalanine in 4 ml of methanol/water (1:1) was diluted to 10 ml with a 0.05 N tris buffer solution (pH 8) containing 0.46 mg of α-chymotrypsin. After standing 2 hours at 37° in a constant temperature bath, a 0.5 ml sample was treated with 0.5 ml of a 1.25% acetone solution of ninhydrin.

In data set [2] the test system is angiotensin I converting enzyme. Description: Inhibition of angiotensin I converting enzyme. Type of data set: biochemical.
Data set [3] in a line: Enzymolysis with chymotrypsin (stability to enzymatic hydrolysis). Type of data set: in vitro ADME. The conditions noted are these: chymotrypsin; 2 hours at 37°, tris buffer pH 8; ninhydrin color; read-out: hydrolysis by α-chymotrypsin. Here is the method: as §1, §2
In data set [4] the test system is renin. In words: Renin inhibition. Format: biochemical.
Data set [5] relates to blood pressure. Description: Guinea pig blood pressure test. The conditions noted are these: relative to BDK = 100%. Format: in vivo.
For data set [6], the system named is guinea pig ileum. Description: Guinea pig ileum contraction assay. The text has this:
This analog can also be made by solid phase protein synthesis.

*1 amine or outer side, *2 acyl side, *3 side chain or, on linkers, in order; H or OH if unused. Where a SMILES comes first, the peptide text is derived from it. [ ]: non-standard residue; d: D form. The star is where a group is joined. X1 = O=C(C(=Cc1ccccc1)N[*:1])[*:2]; Cbz = O=C(OCc1ccccc1)*

For the compound `O=C(N[C@@H](Cc1ccccc1)C(=O)O)C(=Cc1ccccc1)NC(=O)[C@@H]1CCCN1C(=O)OCc1ccccc1` [N-Carbobenzoxy-L-prolyl-dehydrophenylalanyl-L-phenylalanine], the “ninhydrin color formed after α-chymotrypsin treatment” value in data set [1] (2 hours at 37°, tris buffer pH 8, methanol/water, compared with blank solution) was “matched that of a blank solution”. Besides, in data set [1] (treatment with chymotrypsin), the stability to chymotrypsin result is given as “stable to chymotrypsin”. In the case of `CC(C)C[C@H](NC(=O)[C@H](Cc1c[nH]cn1)NC(=O)C(=Cc1ccccc1)NC(=O)[C@@H]1CCCN1)C(=O)O` [tetrapeptide freed of the blocking group, H.Pro-ΔPhe-His-Leu.OH.2HBr], the “inhibition of angiotensin I converting enzyme” value in data set [2] is “inactive”. `CC(C)C[C@H](NC(=O)[C@H](Cc1c[nH]cn1)NC(=O)C(=Cc1ccccc1)NC(=O)[C@@H]1CCCN1C(=O)OCc1ccccc1)C(=O)O` [Z-Pro-ΔPhe-His-Leu.OH]: the “inhibition of angiotensin I converting enzyme” value in data set [2] is “inhibit angiotensin I converting enzyme”. For `O=C(O)[C@H](Cc1ccccc1)NC(=O)[C@H](Cc1ccccc1)NC(=O)[C@@H]1CCCN1C(=O)OCc1ccccc1` [ZPro-Phe-Phe.OH, reference compound] (Cbz-Pro-Phe-Phe-OH), the metabolised at 2 h in data set [3] came out at 5%. Regarding `COC(=O)[C@H](Cc1ccccc1)NC(=O)[C@@H](NC(=O)C(=Cc1ccccc1)NC(=O)[C@@H](N)CC(C)C)C(C)C` [leudehydrophe-val-phe.OMe, Leucyl-dehydrophenylalanyl-valyl-phenylalanine methyl ester], in data set [4], the inhibition of renin result is reported as “inhibits renin”. For `N=C(N)NCCC[C@H](NC(=O)[C@H](Cc1ccccc1)NC(=O)[C@@H]1CCCN1C(=O)[C@H](CO)NC(=O)C(=Cc1ccccc1)NC(=O)CNC(=O)[C@@H]1CCCN1C(=O)[C@@H]1CCCN1C(=O)[C@@H](N)CCCNC(=N)N)C(=O)O` [dehydro BDK, Arginyl-prolyl-prolyl-glycyl-dehydrophenylalanylseryl-prolyl-phenylalanyl-arginine] (H-RPPG[X1]SPFR-OH), the “reduction of blood pressure, BDK as the standard at 100%” value in data set [5] (given intra-arterially) came to 277.7%. For the same compound, the “decrease of blood pressure, BDK as the standard at 100%” value in data set [5] (given intravenously) is 6250%. For the same compound, the “increase in contraction, BDK as the standard at 100%” value in data set [6] (guinea pig ileum, relative to BDK = 100%) is 247.6%. As for Tyr-DAla-Gly-ΔPhe-Met-NH2 Acetate, the “activity in the guinea pig ileum contraction assay” value in data set [6] is on record as “active”.
